Measured values from patent publication US11084795B2, “CFTR regulators and methods of use thereof” (The Regents of the University of California, priority 2015, dated 2021).

The compounds below were run against human wildtype CFTR (Homo sapiens, UniProt P13569) (assay: Fluorescence plate reader assay of iodide influx in FRT cells co-expressing CFTR and YFP halide sensor). Conditions: not given.
Sequence of human wildtype CFTR (P13569 whole entry): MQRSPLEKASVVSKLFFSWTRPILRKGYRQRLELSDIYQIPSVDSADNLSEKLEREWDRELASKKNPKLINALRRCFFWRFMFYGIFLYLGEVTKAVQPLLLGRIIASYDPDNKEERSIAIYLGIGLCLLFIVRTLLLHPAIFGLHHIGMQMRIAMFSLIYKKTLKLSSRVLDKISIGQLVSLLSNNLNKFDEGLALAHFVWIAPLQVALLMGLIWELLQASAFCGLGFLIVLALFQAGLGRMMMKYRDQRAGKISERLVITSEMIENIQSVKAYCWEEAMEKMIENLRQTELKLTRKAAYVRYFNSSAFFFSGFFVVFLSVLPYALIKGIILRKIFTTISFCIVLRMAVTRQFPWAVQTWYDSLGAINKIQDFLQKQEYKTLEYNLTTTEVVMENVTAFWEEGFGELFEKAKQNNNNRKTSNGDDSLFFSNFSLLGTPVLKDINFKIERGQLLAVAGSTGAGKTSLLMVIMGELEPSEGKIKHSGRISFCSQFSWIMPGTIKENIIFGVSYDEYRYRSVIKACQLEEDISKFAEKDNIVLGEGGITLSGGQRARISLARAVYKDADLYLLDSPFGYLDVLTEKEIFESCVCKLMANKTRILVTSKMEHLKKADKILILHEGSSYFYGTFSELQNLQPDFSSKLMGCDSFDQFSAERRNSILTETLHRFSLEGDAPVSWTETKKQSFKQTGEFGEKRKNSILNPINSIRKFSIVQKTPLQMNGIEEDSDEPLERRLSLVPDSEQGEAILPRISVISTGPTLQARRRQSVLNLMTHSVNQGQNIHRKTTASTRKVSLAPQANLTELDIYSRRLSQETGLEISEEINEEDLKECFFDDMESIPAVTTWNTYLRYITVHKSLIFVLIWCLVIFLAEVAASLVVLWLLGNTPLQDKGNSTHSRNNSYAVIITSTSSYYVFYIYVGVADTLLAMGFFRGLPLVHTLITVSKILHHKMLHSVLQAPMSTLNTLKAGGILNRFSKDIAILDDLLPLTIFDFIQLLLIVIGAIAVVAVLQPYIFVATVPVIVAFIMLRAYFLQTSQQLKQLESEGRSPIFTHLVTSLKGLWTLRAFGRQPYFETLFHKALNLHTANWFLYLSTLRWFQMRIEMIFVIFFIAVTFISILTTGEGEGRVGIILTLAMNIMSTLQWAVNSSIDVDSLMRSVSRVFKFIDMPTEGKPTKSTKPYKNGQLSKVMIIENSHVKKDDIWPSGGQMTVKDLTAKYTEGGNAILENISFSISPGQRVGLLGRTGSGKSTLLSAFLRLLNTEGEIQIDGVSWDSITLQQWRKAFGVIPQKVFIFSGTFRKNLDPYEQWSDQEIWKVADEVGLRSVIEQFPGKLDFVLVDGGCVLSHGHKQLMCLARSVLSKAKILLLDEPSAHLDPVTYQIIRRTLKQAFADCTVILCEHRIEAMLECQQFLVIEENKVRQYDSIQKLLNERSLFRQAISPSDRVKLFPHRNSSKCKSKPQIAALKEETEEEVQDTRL

CFTR activity of commercial analogs relative to CFTRact-J027 | EC50 [nM] | SMILES
greatly reduced activity |  | Cn1c(=O)c(-c2cc([N+](=O)[O-])ccc2N)nc2ccccc21 [CFTRact-J052]
greatly reduced activity | ~15000 | O=c1c(-c2cc(Br)ccc2NCc2ccccc2)nc2ccccc2n1Cc1ccccc1 [CFTRact-J056]
greatly reduced activity | ~15000 | CC(=O)Nc1ccccc1-c1nc2ccccc2n(Cc2ccccc2)c1=O [CFTRact-J057]
 | ~19000 | CC(=O)Nc1ccccc1-c1nc2ccccc2n(Cc2cccc(Br)c2)c1=O [CFTRact-J059]
 | > 25000 | CC(=O)Nc1ccc(C)cc1-c1nc2ccccc2n(Cc2ccccc2)c1=O [CFTRact-J060]
 | ~20000 | CC(=O)Nc1ccccc1-c1nc2ccccc2n(CCc2ccccc2)c1=O [CFTRact-J061]
 | > 25000 | Nc1ccc([N+](=O)[O-])cc1-c1nc2ccccc2n(Cc2ccc(Br)cc2)c1=O [CFTRact-J102, 3-(2-Amino-5-nitrophenyl)-1-(4-bromobenzyl)quinoxalin-2(1H)-one]
 | 1200 | Nc1ccc([N+](=O)[O-])cc1-c1nc2ccccc2n(Cc2cccc(Br)c2)c1=O [CFTRact-J103, 3-(2-Amino-5-nitrophenyl)-1-(3-bromobenzyl)quinoxalin-2(1H)-one]
 | 7300 | Nc1ccc([N+](=O)[O-])cc1-c1nc2ccccc2n(Cc2ccccc2Br)c1=O [CFTRact-J104, 3-(2-Amino-5-nitrophenyl)-1-(2-bromobenzyl)quinoxalin-2(1H)-one]
 | 530 | Nc1ccc([N+](=O)[O-])cc1-c1nc2cc(F)ccc2n(Cc2ccccc2)c1=O [CFTRact-J105, 3-(2-Amino-5-nitrophenyl)-1-benzyl-6-fluoroquinoxalin-2(1H)-one]
 | 1500 | CC(=O)Nc1ccc([N+](=O)[O-])cc1-c1nc2ccccc2n(Cc2ccccc2)c1=O [CFTRact-J109, N-(2-(4-Benzyl-3-oxo-3,4-dihydroquinoxalin-2-yl)-4-nitrophenyl)-acetamide]
 | 790 | Nc1ccc(F)cc1-c1nc2ccccc2n(Cc2ccccc2)c1=O [CFTRact-J133, 3-(2-Amino-5-fluorophenyl)-1-benzylquinoxalin-2(1H)-one]
 | 310 | Nc1ccc(Br)cc1-c1nc2ccccc2n(Cc2ccccc2)c1=O [CFTRact-J134, 3-(2-Amino-5-bromophenyl)-1-benzylquinoxalin-2(1H)-one]
 | 260 | Nc1ccc([N+](=O)[O-])cc1-c1nc2cc(Br)ccc2n(Cc2ccccc2)c1=O [CFTRact-J136, 3-(2-Amino-5-nitrophenyl)-1-benzyl-6-bromoquinoxalin-2(1H)-one]
 | 650 | Cc1ccc2c(c1)nc(-c1c(N)cccc1Br)c(=O)n2Cc1ccccc1 [CFTRact-J139, 3-(2-Amino-6-bromophenyl)-1-benzyl-6-methylquinoxalin-2(1H)-one]
 | 700 | Cc1ccc2c(c1)nc(-c1cc(F)ccc1N)c(=O)n2Cc1ccccc1 [CFTRact-J140, 3-(2-Amino-5-fluorophenyl)-1-benzyl-6-methylquinoxalin-2(1H)-one]
 | 470 | Cc1ccc2c(c1)nc(-c1cc(I)ccc1N)c(=O)n2Cc1ccccc1 [CFTRact-J141, 3-(2-Amino-5-iodophenyl)-1-benzyl-6-methylquinoxalin-2(1H)-one]
 | 1500 | Nc1cccc(Br)c1-c1nc2ccccc2n(Cc2ccccc2)c1=O [CFTRact-J142, 3-(2-Amino-6-bromophenyl)-1-benzylquinoxalin-2(1H)-one]
 | > 25000 | Nc1ccc(I)cc1-c1nc2ccccc2n(Cc2ccccc2[N+](=O)[O-])c1=O [CFTRact-J143, 3-(2-Amino-5-iodophenyl)-1-(2-nitrobenzyl)quinoxalin-2(1H)-one]
 | > 25000 | N#Cc1ccccc1Cn1c(=O)c(-c2cc(I)ccc2N)nc2ccccc21 [CFTRact-J144, 3-(2-Amino-5-iodophenyl)-1-(2-cyanobenzyl)quinoxalin-2(1H)-one]
 | > 10000 | O=C(O)c1ccc([N+](=O)[O-])c(-c2nc3ccccc3n(Cc3ccccc3)c2=O)c1 [Compound 1b, 3-(4-Benzyl-3-oxo-3,4-dihydroquinoxalin-2-yl)-4-nitrobenzoic acid]
 | 1000 | COC(=O)c1ccc(N)c(-c2nc3ccccc3n(Cc3ccccc3)c2=O)c1 [Compound 1j, Methyl 4-amino-3-(4-benzyl-3-oxo-3,4-dihydroquinoxalin-2-yl)benzoate]
 | > 10000 | Nc1ccc(C(=O)O)cc1-c1nc2ccccc2n(Cc2ccccc2)c1=O [Compound 1k, 4-Amino-3-(4-benzyl-3-oxo-3,4-dihydroquinoxalin-2-yl)benzoic acid]
 | > 10000 | O=c1c(-c2cccc([N+](=O)[O-])c2)nc2cc(Cl)c(Cl)cc2n1Cc1ccccc1 [Compound 2d, 1-Benzyl-6,7-dichloro-3-(3-nitrophenyl)quinoxalin-2(1H)-one]
 | > 10000 | O=c1c(-c2cccc([N+](=O)[O-])c2)nc2cc(F)c(F)cc2n1Cc1ccccc1 [Compound 2g, 1-Benzyl-6,7-difluoro-3-(3-nitrophenyl)quinoxalin-2(1H)-one]
 | > 10000 | Cc1cccc2nc(-c3cccc([N+](=O)[O-])c3)c(=O)n(Cc3ccccc3)c12 [Compound 2h, 1-Benzyl-8-methyl-3-(3-nitrophenyl)quinoxalin-2(1H)-one]
 | > 10000 | Cc1cc2nc(-c3cccc([N+](=O)[O-])c3)c(=O)n(Cc3ccccc3)c2cc1C [Compound 2i, 1-Benzyl-6,7-dimethyl-3-(3-nitrophenyl)quinoxalin-2(1H)-one]
 | > 10000 | O=c1[nH]c2ccccc2nc1-c1cccc([N+](=O)[O-])c1 [Compound 3a, 3-(3-Nitrophenyl)quinoxalin-2(1H)-one]
 | > 10000 | Cn1c(=O)c(-c2cccc([N+](=O)[O-])c2)nc2ccccc21 [Compound 3b, 1-Methyl-3-(3-nitrophenyl)quinoxalin-2(1H)-one]

Same assay, conditions: plate reader assay

EC50, variation in the N1-substituent | SMILES | EC50, variation in the quinoxalinone core
 | O=c1c(-c2cccc([N+](=O)[O-])c2)nc2ccc(Br)cc2n1Cc1ccccc1 [Compound 2e, 1-Benzyl-7-bromo-3-(3-nitrophenyl)quinoxalin-2(1H)-one] | EC50 = Inactive
EC50 = Inactive | O=c1c(-c2cccc([N+](=O)[O-])c2)nc2ccccc2n1Cc1cccc2ccccc12 [Compound 3f, 1-(Naphthalen-1-ylmethyl)-3-(3-nitrophenyl)quinoxalin-2(1H)-one] | 

Same assay, conditions: read-out: EC50, constrained ring analogs; plate reader assay

EC50 [nM] | SMILES
820 | CC(=O)Nc1ccc([N+](=O)[O-])cc1-c1nc2cccc3c2n(c1=O)CCO3 [Compound 16, N-(4-nitro-2-(5-oxo-2,3-dihydro-5H-[1,4]oxazino[4,3,2-de]quinoxalin-6-yl)phenyl) acetamide]

Same assay, conditions: read-out: EC50, variation in the 3-aryl ring; plate reader assay

EC50 [nM] | SMILES
1000 | O=c1c(-c2ccccc2[N+](=O)[O-])nc2ccccc2n1Cc1ccccc1 [Compound 1d, 1-Benzyl-3-(2-nitrophenyl)quinoxalin-2(1H)-one]
1000 | O=c1c(-c2ccc([N+](=O)[O-])cc2)nc2ccccc2n1Cc1ccccc1 [Compound 1e, 1-Benzyl-3-(4-nitrophenyl)quinoxalin-2(1H)-one]
1000 | O=c1c(-c2ccc(C(F)(F)F)cc2)nc2ccccc2n1Cc1ccccc1 [Compound 1f, 1-Benzyl-3-(4-(trifluoromethyl)phenyl)quinoxalin-2(1H)-one]
5000 | O=c1c(-c2ccccc2)nc2ccccc2n1Cc1ccccc1 [Compound 1h, 1-Benzyl-3-phenylquinoxalin-2(1H)-one]
550 | COC(=O)c1ccc(N)c(-c2nc3ccccc3n(Cc3ccccc3)c2=O)c1 [Compound 1j, Methyl 4-amino-3-(4-benzyl-3-oxo-3,4-dihydroquinoxalin-2-yl)benzoate]
18 | O=c1c(-c2ccc3nonc3c2)nc2ccccc2n1Cc1ccccc1 [Compound 1m, 3-(Benzo[c][1,2,5]oxadiazol-5-yl)-1-benzylquinoxalin-2(1H)-one]

SMILES | EC50 [nM]
O=c1c(-c2cccc(Br)c2)nc2ccccc2n1Cc1ccccc1 [Compound 1g, 1-Benzyl-3-(3-bromophenyl)quinoxalin-2(1H)-one] | 330
O=c1c(-c2ccc(F)c([N+](=O)[O-])c2)nc2ccccc2n1Cc1ccccc1 [Compound 1i, 1-Benzyl-3-(4-fluoro-3-nitrophenyl)quinoxalin-2(1H)-one] | 690

Same assay, conditions: read-out: EC50, variation in the N1-substituent; plate reader assay

EC50 [nM] | SMILES
65 | CCn1c(=O)c(-c2cccc([N+](=O)[O-])c2)nc2ccccc21 [Compound 3c, 1-Ethyl-3-(3-nitrophenyl)quinoxalin-2(1H)-one]
177 | CCCn1c(=O)c(-c2cccc([N+](=O)[O-])c2)nc2ccccc21 [Compound 3d, 1-Propyl-3-(3-nitrophenyl)quinoxalin-2(1H)-one]
55 | C=CCn1c(=O)c(-c2cccc([N+](=O)[O-])c2)nc2ccccc21 [Compound 3e, 1-Allyl-3-(3-nitrophenyl)quinoxalin-2(1H)-one]
4300 | O=c1c(-c2cccc([N+](=O)[O-])c2)nc2ccccc2n1Cc1ccc2ccccc2c1 [Compound 3g, 1-(Naphthalen-2-ylmethyl)-3-(3-nitrophenyl)quinoxalin-2(1H)-one]
52 | O=c1c(-c2cccc([N+](=O)[O-])c2)nc2ccccc2n1Cc1ccccn1 [Compound 3h, 3-(3-Nitrophenyl)-1-(pyridin-2-ylmethyl)quinoxalin-2(1H)-one]
20 | O=c1c(-c2cccc([N+](=O)[O-])c2)nc2ccccc2n1Cc1ccco1 [Compound 3i, 1-(Furan-2-ylmethyl)-3-(3-nitrophenyl)quinoxalin-2(1H)-one]

Same assay, conditions: read-out: EC50, variation in the quinoxalinone core; plate reader assay

EC50 [nM] | SMILES
760 | O=c1c(-c2cccc([N+](=O)[O-])c2)nc2ccc(Cl)cc2n1Cc1ccccc1 [Compound 2a, 1-Benzyl-7-chloro-3-(3-nitrophenyl)quinoxalin-2(1H)-one]
70 | O=c1c(-c2cccc([N+](=O)[O-])c2)nc2cc(Cl)ccc2n1Cc1ccccc1 [Compound 2b, 1-Benzyl-6-chloro-3-(3-nitrophenyl)quinoxalin-2(1H)-one]
110 | O=c1c(-c2cccc([N+](=O)[O-])c2)nc2c(Cl)cccc2n1Cc1ccccc1 [Compound 2c, 1-Benzyl-5-chloro-3-(3-nitrophenyl)quinoxalin-2(1H)-one]

SMILES | EC50 [nM]
O=c1c(-c2cccc([N+](=O)[O-])c2)nc2cc(Br)ccc2n1Cc1ccccc1 [Compound 2f, 1-Benzyl-6-bromo-3-(3-nitrophenyl)quinoxalin-2(1H)-one] | 63
